{"source": "patent US7355074B2", "about": "“Compounds having aromatic rings and side-chain amide-functionality and a method for transporting monovalent anions across biological membranes using the same” (The University of Maryland, priority 2003, dated 2008)", "key": {"[1]": {"assay": "calcein dye release assay (lytic potential)", "type": "biochemical", "settings": "5-100 μM, 1-20 mol % ligand; LUVs containing 120 mM calcein", "method": "Calix[4]arene tetrabutylamide 2 may transport ions across LUVs by inducing membrane defects, by uniport of ions, or via cotransport of ion pairs ([…], M^− or OH^−/A^− antiport and H^+/A^− or M^+/OH^− symport mechanisms are possible). The lytic potential of 2 was evaluated using a dye release assay. The self-quenching dye calcein loses 95% of its fluorescence emission at concentrations above 100 mM. 2.\nEYPC Calcein-Containing Vesicles: Calcein (224.1 mg, 0.36 mmol) was suspended in 3 mL of phosphate buffer (100 mM NaCl, 10 mM sodium phosphate, pH 6.4). The pH of the solution was adjusted to 6.4 with a 7.4 M NaOH-containing phosphate buffer, at which point all the calcein was dissolved to give a 120 mM solution of the dye. The molality of the extravesicular buffer was adjusted to equal that of the calcein-containing solution with 1 m NaCl. Osmomolality was determined by VPO. A thin film was prepared from 60 mg of EYPC ([…]) as described above. The lipid film was hydrated in 1.2 mL of the calcein buffer. During hydration, the suspension was submitted to five freeze-thaw cycles (dry ice in acetone, water at room temperature) and then submitted to high-pressure extrusion (2) extrusions through a 0.1 μm polycarbonate membrane afforded LUVs with an average diameter of 100 nm). […]"}, "[2]": {"assay": "pH changes in liposomes experiencing a Cl- gradient (oligophenoxyacetamides)", "type": "biochemical", "method": "FIG. 2B illustrates alkanization of the vesicular aqueous compartment upon application of compounds 1-6 to a suspension of NaCl-containing vesicles in isosmomolar Na2SO4 buffer. Concentration of compounds 1-6 in the vesicular suspension was 20 μm (4 mol %). Legend for traces denotes use of oligocompounds 1, 2, 3, 4, 5, 6.\nLiposome Preparation for Fluorimetric Assays. Egg yolk L-α-phosphatidylcholine (EYPC ethanol solution, […], 79 μmol) was dissolved in a CHCl3/MeOH mixture, the solution was evaporated under reduced pressure and the resulting thin film was dried under high vacuum for 2 h. The lipid film was hydrated in 1.2 mL of phosphate buffer (10 mM sodium phosphate, pH=6.4, 75-100 mM MnX, M=N^+, K^+, X=Cl^−, SO4^2−, n=1,2) containing 10 μM HPTS (pyranine, 8-hydroxypyrene-1,3,6-trisulfonic acid trisodium salt) for 40 min. During hydration, the suspension was submitted to 5 freeze-thaw cycle (liquid nitrogen, water at rt). The large multilamellar liposome suspension (1 mL) was submitted to high-pressure extrusion at rt (21 extrusions through a 0.1 μm polycarbonate membrane afforded a suspension of LUVs with an average diameter of 100 nm). The LUV suspension was separated from extravesicular dye by size exclusion chromatography (SEC) (stationary phase: Sephadex G-10, mobile phase: phosphate buffer) and diluted with the same phosphate buffer to give a stock solution with a lipid concentration of 11 mM (assuming 100% of lipid was incorporated into liposomes).\nAnalysis of pH changes in the liposomes experiencing a CT gradient. a) Outwardly directed gradient of Cl:HPTS-loaded vesicles (100 μL of the stock solution), filled with a saline phosphate buffer (10 mM sodium phosphate, pH 6.4, 100 mM NaCl) were suspended in 1.9 mL of an isosmotic phosphate sulfate buffer (10 mM sodium phosphate, pH 6.0, 75 mM Na2SO4) and placed into a fluorimetric cell. The emission of HPTS at 510 nm was monitored with excitation wavelengths at 403 and 460 nm simultaneously. During the experiment, 20 μL of a 0-2 mM DMSO solution of the compound of interest was added through an injection port. Intravesicular pH values were obtained as described for pH-stat transport assays. At the end of experiment, the aqueous compartment of liposomes was equilibrated with extravesicular solution by lysis of liposomes with detergent (40 μL of 5% aqueous Triton X100). b) Inwardly directed gradient of Cl:HPTS-loaded vesicles (100 μL of the stock solution), filled with a isoosimomolar sulfate phosphate buffer (10 mM sodium phosphate, pH 6.0, 75 mM Na2SO4) were suspended in 1.9 mL of an isosmotic phosphate saline buffer (10 mM sodium phosphate, pH 6.4, 100 mM NaCl) and placed into a fluorimetric cell. Further analysis was conducted as described for the case of an outwardly directed gradient of […]. Analysis of the electrostatic potential on the surface of liposomes. LUVs (100 μL of stock solution, 100 mM KCl inside and outside or 75 mM Na2SO4 inside and outside) were suspended in 1.9 mL of 100 mM NaCl buffer containing 60 nM safranin O (a potential-sensitive dye). Safranin O emission was monitored at 580 nm with excitation at 520 nm. During the course of the experiment, 20 μL of a 0-0.12 mM DMSO solution of valinomycin or 0-2 mM of 3-8 DMSO solution was added. Experiments were completed by injection of 20 μL of 1 mM aqueous solution of the defect-inductive peptide melittin."}, "[3]": {"settings": "4 mol %, NaCl-loaded liposomes in Na2SO4 buffer"}}}
{"smiles": "CCCCNC(=O)COc1c2cccc1Cc1cccc(c1OCC(=O)NCCCC)Cc1cccc(c1OCC(=O)NCCCC)Cc1cccc(c1OCC(=O)NCCCC)C2", "note": "[calix[4]arene tetrabutylamide 2, Calix[4]arene tetrabutylamide]", "values": [{"measurement": "calcein fluorescence (membrane defects)", "setting": "[1]", "result": "no fluorescence enhancement"}]}
{"smiles": "CCCCNC(=O)COc1ccccc1Cc1cccc(Cc2ccccc2OCC(=O)NCCCC)c1OCC(=O)NCCCC", "note": "[trimer 3, Tris-(N-butyl-2-phenoxyacetamide)]", "values": [{"measurement": "pH gradient generated", "setting": "[2]; [3]", "result": "approximately are pH unit"}, {"measurement": "time to reach the pH gradient", "setting": "[2]; [3]", "result": "≤ 1.5", "unit": "minutes"}, {"measurement": "time the pH gradient remained stable", "setting": "[2]; 4 mol %, until the liposomes were lysed", "result": 5, "unit": "minutes"}, {"measurement": "relative ability to alter the pH in liposomes under a Cl− gradient", "setting": "[2]; NaCl-loaded liposomes in Na2SO4 buffer", "result": "most active compound in the series tested"}, {"measurement": "transport under inwardly directed Cl− gradient", "setting": "[2]; sulfate-loaded liposomes suspended in Cl− buffer", "result": "transports both Cl^− and H^+ into sulfate-loaded liposomes"}]}
